Source: ChEMBL document CHEMBL1201862, “PubChem BioAssay data set” (2004)
Active and inactive are the calls of the source.

Key:
Coagulation factor XII = molecular target: T1, Coagulation factor XII (Homo sapiens, UniProt P00748); test: FXIIa inhibitor potency, concentration-response, biochemical (AID 716); assay type: functional
T1 sequence (P00748 whole entry): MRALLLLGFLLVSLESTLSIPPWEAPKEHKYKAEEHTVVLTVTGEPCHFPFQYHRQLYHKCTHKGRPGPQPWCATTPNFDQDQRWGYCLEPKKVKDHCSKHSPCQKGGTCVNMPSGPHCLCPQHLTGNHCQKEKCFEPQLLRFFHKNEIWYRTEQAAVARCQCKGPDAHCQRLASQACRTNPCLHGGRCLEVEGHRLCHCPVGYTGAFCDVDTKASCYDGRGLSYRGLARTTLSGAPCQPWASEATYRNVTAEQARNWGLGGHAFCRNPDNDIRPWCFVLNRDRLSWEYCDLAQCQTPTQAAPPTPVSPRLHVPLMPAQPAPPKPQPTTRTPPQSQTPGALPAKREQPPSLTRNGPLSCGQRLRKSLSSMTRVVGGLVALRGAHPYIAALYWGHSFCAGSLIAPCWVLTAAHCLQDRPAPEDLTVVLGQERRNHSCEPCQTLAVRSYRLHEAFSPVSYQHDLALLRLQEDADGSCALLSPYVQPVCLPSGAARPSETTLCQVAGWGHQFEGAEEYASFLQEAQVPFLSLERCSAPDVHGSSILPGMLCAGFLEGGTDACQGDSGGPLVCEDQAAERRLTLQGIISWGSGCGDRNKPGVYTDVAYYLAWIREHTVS

[1] = molecular target: T2, Type-1 angiotensin II receptor (Homo sapiens, UniProt P30556); test: AT1 receptor agonists, dose response, selectivity assay for APJ receptor agonist project, cell-based, uHTS hits (AID 488865); assay type: functional;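 also: beta-arrestin recruitment to AT1 measured by enzyme fragment complementation luminescence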
T2 sequence (P30556 whole entry): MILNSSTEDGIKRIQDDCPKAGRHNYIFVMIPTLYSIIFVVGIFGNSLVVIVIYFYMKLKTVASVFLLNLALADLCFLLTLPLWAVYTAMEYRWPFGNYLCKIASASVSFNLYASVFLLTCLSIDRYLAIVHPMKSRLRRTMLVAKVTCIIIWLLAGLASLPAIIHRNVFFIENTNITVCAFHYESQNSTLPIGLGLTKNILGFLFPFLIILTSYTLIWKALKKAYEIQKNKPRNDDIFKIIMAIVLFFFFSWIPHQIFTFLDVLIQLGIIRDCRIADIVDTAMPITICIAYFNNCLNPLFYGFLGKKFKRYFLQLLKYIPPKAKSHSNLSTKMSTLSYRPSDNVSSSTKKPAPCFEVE

Vero [2] = test: cells; assay type: functional; settings: Chlorocebus sabaeus
Vero [3] = test: cells; assay type: functional, cell-based; settings: Chlorocebus sabaeus
[4] = molecular target: E3 ubiquitin-protein ligase Mdm2/Protein Mdm4 (Homo sapiens, UniProt O15151+Q00987); test: Mdm2-MdmX interaction inhibitors, dose response, luminescence detection (AID 504593); assay type: functional
[5] = Luminescence Cell-Based Dose Retest to Confirm Inhibitors of Cancer Stem Cells. [Related pubchem assays (depositor defined):AID2717, AID2721]; assay type: functional; settings: Homo sapiens
[6] = molecular target: Nucleotide-binding oligomerization domain-containing protein 2 (Homo sapiens, UniProt Q9HC29); test: NOD2 signaling inhibitors, cell-based, luminescence, uHTS, HEK293 (AID 1566); assay type: functional
HEK293 [7] = test: cells; assay type: functional, cell-based; settings: Homo sapiens
HEK293 [8] = test: cells; assay type: functional, cell-based; settings: Homo sapiens; remark: listed apart in the source
HEK293 [9] = test: cells; assay type: functional, cell-based; settings: Homo sapiens; remark: listed apart in the source
HEK293 [10] = test: NOD2 signaling inhibitors in MDP-stimulated cells, cell-based, uHTS, luminescence (AID 2001); assay type: functional; settings: Homo sapiens
HEK293 [11] = test: NOD1 signaling inhibitors, primary screen, cell-based, luminescence, uHTS (AID 1578); assay type: functional; settings: Homo sapiens
[12] = molecular target: Dual specificity tyrosine-phosphorylation-regulated kinase 1A (Rattus norvegicus, UniProt Q63470); assay type: biochemical, Homo sapiens
[13] = molecular target: T3, Alkaline phosphatase, tissue-nonspecific isozyme (Homo sapiens, UniProt P05186); test: human TNAP enzyme inhibitors, SAR follow-up, biochemical, luminescent, dose response (AID 1056)
T3 sequence (P05186 whole entry): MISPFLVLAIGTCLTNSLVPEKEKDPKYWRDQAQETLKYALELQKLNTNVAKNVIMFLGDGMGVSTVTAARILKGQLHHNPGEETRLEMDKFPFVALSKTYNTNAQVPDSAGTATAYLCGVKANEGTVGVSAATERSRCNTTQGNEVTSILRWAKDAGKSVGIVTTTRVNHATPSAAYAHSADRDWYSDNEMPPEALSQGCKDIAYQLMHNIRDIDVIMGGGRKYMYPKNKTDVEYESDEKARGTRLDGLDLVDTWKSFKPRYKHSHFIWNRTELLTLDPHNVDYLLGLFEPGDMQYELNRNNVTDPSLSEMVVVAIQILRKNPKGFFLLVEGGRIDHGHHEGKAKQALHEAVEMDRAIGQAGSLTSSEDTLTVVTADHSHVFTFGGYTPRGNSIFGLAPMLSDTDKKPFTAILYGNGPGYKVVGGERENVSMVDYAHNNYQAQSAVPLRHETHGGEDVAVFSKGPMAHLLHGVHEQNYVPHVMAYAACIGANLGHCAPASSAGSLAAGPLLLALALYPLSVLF

[14] = molecular target: Alkaline phosphatase, placental type (Homo sapiens, UniProt P05187); test: PLAP enzyme inhibitors, confirmation, biochemical, luminescence (AID 1512); assay type: functional
Troponin, cardiac muscle = Troponin, cardiac muscle (Homo sapiens, UniProt P19429+P45379+P63316); test: Fluorescence-based biochemical high throughput dose response assay for activators of the calcium sensitivity of cardiac Regulated Thin Filaments (RTF). [Related pubchem assays (depositor defined):AID493008, AID493018, AID504382, AID504383]; assay type: protein-complex assay
[15] = molecular target: T4, Endoribonuclease toxin MazF (Escherichia coli K-12, UniProt P0AE70); test: MazF toxin RNase activators, dose response, biochemical, fluorescence, single-stranded RNA substrate, uHTS hits (AID 588481); assay type: functional
T4 sequence (P0AE70 whole entry): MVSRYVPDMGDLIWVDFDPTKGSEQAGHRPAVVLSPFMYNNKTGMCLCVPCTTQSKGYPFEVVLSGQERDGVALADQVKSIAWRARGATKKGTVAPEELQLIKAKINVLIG

[16] = molecular target: T4, Endoribonuclease toxin MazF; test: fluorescent RNA oligo signal without MazF, dose response, counter-screen for MazEF activator project, biochemical, fluorescence, single-stranded RNase substrate (AID 588502); assay type: functional
[17] = molecular target: Voltage-dependent T-type calcium channel subunit alpha-1H (Homo sapiens, UniProt O95180); test: Cav3.2 T-type channel inhibitors, cell-based, synthetic library set 1, calcium flux (AID 493022); assay type: functional
Hexokinase = Hexokinase (Trypanosoma brucei, UniProt Q38C41); test: Confirmation assay for inhibitors of Trypanosoma brucei hexokinase 1-Analogue-first series. [Related pubchem assays (depositor defined):AID1430, AID1632, AID2516, AID2560, AID2579, AID2600, AID449725, AID492951]; assay type: functional
[18] = molecular target: T5, Dual specificity protein phosphatase 6 (Rattus norvegicus, UniProt Q64346); assay type: functional;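 also: confirmatory in vitro dose-response testing of MKP-3 inhibition; recombinant His-tagged MKP-3 made in E. coli BL21 with OMFP substrate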
T5 sequence (Q64346 whole entry): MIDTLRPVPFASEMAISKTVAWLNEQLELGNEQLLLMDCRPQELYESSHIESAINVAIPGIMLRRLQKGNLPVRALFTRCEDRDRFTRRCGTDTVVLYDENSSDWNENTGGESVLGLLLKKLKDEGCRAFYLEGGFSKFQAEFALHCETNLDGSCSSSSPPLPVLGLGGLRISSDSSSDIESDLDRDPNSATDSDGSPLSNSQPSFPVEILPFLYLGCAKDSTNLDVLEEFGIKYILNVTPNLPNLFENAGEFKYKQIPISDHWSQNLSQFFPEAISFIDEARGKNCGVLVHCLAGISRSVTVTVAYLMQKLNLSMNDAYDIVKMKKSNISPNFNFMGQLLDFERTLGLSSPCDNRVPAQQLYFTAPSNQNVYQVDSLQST

[19] = molecular target: Tyrosine-protein phosphatase non-receptor type 12 (Homo sapiens, UniProt Q05209); test: SAR Selectivity Analysis of small molecule inhibitors of PEST using pCAP in a fluorescence assay. [Related pubchem assays (depositor defined):AID1779, AID1784, AID2135]; assay type: functional
[20] = molecular target: T6, Tyrosine-protein phosphatase non-receptor type 7 (Homo sapiens, UniProt P35236); test: HePTP (PTPN7) phosphatase inhibitor potency, SAR follow-up, biochemical, set 2 (AID 449736); assay type: functional
T6 sequence (P35236 whole entry): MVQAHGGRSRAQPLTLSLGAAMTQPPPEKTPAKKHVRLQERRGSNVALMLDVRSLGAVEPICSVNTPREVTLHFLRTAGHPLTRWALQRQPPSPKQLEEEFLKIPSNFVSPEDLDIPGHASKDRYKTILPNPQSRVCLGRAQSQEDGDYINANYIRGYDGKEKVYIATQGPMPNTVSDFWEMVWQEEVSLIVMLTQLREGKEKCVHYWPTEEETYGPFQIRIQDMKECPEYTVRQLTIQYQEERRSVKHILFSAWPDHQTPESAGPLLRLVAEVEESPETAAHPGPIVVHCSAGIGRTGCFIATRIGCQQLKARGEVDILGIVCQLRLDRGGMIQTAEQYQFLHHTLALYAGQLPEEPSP

[21] = molecular target: Dual specificity protein phosphatase 3 (Homo sapiens, UniProt P51452); test: SAR VHR1 Fluorescent Assay for In Vitro dose response studies Set 2. [Related pubchem assays (depositor defined):AID1654, AID1661, AID1878]; assay type: functional
[22] = molecular target: T7, Tyrosine-protein phosphatase non-receptor type 22 (Homo sapiens, UniProt Q9Y2R2); test: LYP (PTPN22) phosphatase inhibitor potency, SAR follow-up, biochemical, pCAP fluorogenic substrate, fluorescence, set 3 (AID 449727); assay type: functional
T7 sequence (Q9Y2R2 whole entry): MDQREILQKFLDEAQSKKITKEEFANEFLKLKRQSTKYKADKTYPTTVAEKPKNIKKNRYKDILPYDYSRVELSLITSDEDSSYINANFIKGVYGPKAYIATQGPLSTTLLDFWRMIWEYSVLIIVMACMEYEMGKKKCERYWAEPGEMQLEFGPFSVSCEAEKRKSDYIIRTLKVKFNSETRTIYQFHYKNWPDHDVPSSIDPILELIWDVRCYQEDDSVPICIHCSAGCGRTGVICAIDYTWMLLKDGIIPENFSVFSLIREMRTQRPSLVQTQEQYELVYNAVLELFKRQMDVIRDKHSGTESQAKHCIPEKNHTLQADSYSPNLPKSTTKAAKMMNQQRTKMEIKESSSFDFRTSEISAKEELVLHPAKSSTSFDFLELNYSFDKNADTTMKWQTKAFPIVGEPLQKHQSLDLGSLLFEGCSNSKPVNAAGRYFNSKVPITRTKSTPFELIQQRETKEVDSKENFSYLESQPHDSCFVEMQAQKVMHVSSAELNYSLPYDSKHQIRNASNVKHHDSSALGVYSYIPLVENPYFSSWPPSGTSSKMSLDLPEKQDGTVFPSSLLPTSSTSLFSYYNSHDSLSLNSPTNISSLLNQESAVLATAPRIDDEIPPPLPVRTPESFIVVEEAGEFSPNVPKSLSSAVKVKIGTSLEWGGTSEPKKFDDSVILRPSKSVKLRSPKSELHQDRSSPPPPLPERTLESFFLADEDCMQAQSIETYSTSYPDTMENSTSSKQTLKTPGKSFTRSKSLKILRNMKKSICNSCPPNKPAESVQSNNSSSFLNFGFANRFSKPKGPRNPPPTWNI

[23] = molecular target: T6, Tyrosine-protein phosphatase non-receptor type 7; test: redox-dependent HePTP inhibition, mechanism study, biochemical, fluorescence (AID 2068); assay type: functional
[24] = molecular target: T7, Tyrosine-protein phosphatase non-receptor type 22; test: SAR LYP1 Fluorescent Assay using OMFP substrate for In Vitro dose response studies - Set 3. [Related pubchem assays (depositor defined):AID1779, AID1784, AID2140, AID2686]; assay type: functional

For `CCOC(=O)c1nnn(-c2nonc2N)c1CNc1ccc(C)c(Br)c1`, the IC50 (Coagulation factor XII) was > 50 µM (inactive).

In the case of `C=CCSc1nc(=O)c(CC)c(O)n1C(C)CC` (configuration not stated), the EC50 [1] is reported as > 100 µM (inactive).

In the case of `O=C(/C=C/c1c(F)cccc1Cl)c1ccc(O)cc1`, the CC50 (Vero [2]) is reported as 19.9 µM (active), the IC50 (Vero [3]) is reported as 23.6 µM (active) and the IC50 [4] is reported as 5.74 µM (active). The AC50 [5] was 6.85 µM (active).

In the case of `Clc1c(Cl)c(Cl)c2[nH]nnc2c1Cl`, the EC50 [6] is reported as 3.2 µM (active), the IC50 (HEK293 [7]) is reported as > 20 µM (inactive) and the IC50 (HEK293 [8]) is reported as > 20 µM (inactive). The IC50 (HEK293 [9]) was 13.9 µM (active), the IC50 (HEK293 [10]) was 7.94 µM (active) and the EC50 (HEK293 [11]) was 2.24 µM (active). For the same compound, the AC50 [12] was 5.99 µM (active).

For `C=CCn1c(SCC(=O)c2ccc(O)c(O)c2)nnc1-c1ccc(Cl)cc1`, the IC50 [13] was > 100 µM (inactive) and the IC50 [14] was 11.8 µM (active).

For `O=[N+]([O-])c1ccc(NN=Cc2cccc3ccccc23)nc1`, the EC50 (Troponin, cardiac muscle) was 26.6 µM (inactive), the EC50 [15] was > 99 µM (inactive) and the EC50 [16] was 45.4 µM (inactive).

With `CC(Oc1ccccc1)C(=O)Nc1nnc(-c2ccc(F)c(F)c2)o1` (configuration not stated) the EC50 [17] was 10 µM (active).

For `COc1ccc(Nc2cc(Cl)ccc2C(=O)O)cc1`, the IC50 (Hexokinase) was > 25 µM (inactive).

In the case of `CCOc1cc(/C=C2/S/C(=N/c3ccc4ccccc4c3)NC2=O)cc(Cl)c1OCC(=O)O`, the IC50 [18] is reported as 26.5 µM (active), the IC50 [19] is reported as 4.76 µM (active) and the IC50 [20] is reported as 0.466 µM (active). The IC50 [21] was 0.48 µM (active), the IC50 [22] was 12.3 µM (active) and the IC50 [23] was 0.373 µM (active). For the same compound, the IC50 [24] was 15.6 µM (active).
